One assay addresses hNav1.7 (Homo sapiens, UniProt Q15858). In words: cell-based. The note with it: Nav1.7 Use IC50.
The next assay has as its target hNav1.5 (Homo sapiens, UniProt Q14524). In words: cell-based.

The values that follow come from patent publication US9340590B2 (priority 2011, dated 2016).

Positions of bridges follow the written chain, without caps; N, C: chain ends. Non-standard residues stand in square brackets, D forms with d. Residues, ends and D or L forms follow the SMILES beside them. Nva = CCC[C@H](N)C(=O)O Some results are limits rather than exact numbers.

hNav1.5, sequence (Q14524 whole entry, looked up): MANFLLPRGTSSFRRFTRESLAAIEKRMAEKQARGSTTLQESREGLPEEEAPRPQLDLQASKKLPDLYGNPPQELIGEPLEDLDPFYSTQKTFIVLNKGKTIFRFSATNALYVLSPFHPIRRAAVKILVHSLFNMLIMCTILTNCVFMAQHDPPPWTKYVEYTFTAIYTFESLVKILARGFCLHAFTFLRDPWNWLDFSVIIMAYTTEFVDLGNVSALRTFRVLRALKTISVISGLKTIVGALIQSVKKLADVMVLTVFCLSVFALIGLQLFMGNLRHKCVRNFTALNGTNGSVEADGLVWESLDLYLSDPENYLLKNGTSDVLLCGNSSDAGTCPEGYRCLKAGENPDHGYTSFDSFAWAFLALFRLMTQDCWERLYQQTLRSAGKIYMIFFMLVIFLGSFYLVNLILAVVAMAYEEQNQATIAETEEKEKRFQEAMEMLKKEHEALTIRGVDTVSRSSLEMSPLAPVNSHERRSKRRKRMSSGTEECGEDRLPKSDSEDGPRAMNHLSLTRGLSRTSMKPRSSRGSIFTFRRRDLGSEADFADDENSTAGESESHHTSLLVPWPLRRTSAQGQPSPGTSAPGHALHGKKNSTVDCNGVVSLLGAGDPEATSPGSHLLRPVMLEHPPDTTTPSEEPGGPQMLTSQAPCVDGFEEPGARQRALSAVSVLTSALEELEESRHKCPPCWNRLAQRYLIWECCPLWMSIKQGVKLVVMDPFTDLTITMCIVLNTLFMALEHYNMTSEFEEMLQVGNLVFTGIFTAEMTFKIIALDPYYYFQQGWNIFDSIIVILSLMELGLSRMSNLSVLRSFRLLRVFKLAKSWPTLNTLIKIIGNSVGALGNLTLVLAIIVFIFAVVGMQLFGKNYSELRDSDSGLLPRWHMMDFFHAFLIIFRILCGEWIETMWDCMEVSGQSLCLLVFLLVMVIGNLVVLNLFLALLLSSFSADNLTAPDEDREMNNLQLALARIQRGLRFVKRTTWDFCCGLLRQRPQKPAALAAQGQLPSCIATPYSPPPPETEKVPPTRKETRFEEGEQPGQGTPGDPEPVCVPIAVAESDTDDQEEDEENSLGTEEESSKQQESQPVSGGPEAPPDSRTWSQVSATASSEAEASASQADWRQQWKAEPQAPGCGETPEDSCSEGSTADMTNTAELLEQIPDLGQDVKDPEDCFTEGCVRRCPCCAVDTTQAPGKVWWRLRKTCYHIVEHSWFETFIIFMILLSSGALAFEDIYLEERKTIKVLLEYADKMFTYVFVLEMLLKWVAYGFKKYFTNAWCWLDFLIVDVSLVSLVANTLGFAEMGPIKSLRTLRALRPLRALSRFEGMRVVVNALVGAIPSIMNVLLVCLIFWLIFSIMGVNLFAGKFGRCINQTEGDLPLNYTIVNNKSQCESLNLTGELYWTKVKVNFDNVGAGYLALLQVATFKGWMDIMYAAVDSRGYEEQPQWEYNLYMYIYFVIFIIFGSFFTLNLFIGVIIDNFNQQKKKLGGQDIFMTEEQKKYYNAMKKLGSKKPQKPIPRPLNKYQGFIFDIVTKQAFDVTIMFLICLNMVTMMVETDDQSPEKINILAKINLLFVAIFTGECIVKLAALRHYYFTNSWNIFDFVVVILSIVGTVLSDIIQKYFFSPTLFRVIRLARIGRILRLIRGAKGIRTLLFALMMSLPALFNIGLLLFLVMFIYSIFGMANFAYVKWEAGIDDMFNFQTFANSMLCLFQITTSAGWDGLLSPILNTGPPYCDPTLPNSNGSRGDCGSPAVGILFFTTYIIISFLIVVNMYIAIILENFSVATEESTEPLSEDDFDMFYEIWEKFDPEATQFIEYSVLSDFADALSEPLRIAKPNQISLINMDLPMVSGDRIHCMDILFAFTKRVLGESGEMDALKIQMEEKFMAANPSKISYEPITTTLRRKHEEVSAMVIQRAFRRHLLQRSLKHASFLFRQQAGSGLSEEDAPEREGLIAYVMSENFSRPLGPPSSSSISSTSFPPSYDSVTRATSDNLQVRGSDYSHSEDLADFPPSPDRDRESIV
hNav1.7, sequence (Q15858 whole entry, looked up): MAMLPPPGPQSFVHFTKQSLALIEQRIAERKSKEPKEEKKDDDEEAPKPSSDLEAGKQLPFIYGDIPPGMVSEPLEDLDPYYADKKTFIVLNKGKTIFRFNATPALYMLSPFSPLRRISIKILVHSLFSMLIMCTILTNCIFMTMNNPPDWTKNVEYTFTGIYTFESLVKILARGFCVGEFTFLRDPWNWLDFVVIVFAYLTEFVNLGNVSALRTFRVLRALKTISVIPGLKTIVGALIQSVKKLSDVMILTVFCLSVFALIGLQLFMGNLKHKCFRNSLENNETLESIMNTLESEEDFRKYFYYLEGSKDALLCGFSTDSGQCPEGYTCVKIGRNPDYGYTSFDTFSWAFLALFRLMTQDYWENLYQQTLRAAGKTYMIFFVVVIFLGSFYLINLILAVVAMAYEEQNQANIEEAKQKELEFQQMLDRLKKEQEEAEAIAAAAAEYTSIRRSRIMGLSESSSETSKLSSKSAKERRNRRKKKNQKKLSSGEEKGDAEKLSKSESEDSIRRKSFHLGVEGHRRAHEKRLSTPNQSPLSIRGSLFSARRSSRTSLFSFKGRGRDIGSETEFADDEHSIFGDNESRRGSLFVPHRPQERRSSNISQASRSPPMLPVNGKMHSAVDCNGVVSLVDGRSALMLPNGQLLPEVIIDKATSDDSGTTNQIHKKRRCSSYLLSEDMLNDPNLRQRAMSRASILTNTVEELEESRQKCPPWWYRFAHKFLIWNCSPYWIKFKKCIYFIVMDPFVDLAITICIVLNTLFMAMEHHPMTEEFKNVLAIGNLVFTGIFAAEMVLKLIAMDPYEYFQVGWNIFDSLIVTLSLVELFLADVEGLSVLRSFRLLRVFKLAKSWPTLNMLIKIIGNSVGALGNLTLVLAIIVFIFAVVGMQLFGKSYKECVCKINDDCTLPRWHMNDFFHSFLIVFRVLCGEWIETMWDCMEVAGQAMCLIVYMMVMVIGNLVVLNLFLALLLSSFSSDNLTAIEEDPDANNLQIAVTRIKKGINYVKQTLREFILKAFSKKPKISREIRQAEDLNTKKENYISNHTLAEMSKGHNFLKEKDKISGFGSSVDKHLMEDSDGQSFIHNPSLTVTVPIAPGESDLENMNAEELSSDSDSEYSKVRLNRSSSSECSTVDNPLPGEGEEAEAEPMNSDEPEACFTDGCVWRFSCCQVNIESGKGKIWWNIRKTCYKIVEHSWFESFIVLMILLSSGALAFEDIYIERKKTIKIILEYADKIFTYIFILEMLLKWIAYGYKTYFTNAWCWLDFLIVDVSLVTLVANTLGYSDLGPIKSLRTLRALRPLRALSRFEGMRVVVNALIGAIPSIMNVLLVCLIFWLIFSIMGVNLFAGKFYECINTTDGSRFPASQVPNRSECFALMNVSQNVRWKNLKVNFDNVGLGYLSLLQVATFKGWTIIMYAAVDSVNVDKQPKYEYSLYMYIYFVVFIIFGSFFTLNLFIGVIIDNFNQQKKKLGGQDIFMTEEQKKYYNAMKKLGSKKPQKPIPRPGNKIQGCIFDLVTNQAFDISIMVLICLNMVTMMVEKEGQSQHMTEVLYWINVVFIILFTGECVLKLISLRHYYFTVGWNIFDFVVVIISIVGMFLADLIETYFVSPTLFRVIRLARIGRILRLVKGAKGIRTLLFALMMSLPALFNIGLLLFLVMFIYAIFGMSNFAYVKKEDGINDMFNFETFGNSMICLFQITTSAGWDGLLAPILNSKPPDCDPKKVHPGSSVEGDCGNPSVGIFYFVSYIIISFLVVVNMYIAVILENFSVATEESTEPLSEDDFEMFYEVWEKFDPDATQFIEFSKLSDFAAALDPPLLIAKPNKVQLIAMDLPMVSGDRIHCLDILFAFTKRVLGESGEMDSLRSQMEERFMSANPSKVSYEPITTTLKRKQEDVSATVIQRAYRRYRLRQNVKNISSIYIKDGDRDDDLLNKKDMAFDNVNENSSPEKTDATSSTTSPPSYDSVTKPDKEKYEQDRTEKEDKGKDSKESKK

By IC50 is commonly meant the point on the concentration scale where inhibition reaches its midpoint. A lower IC50 goes with greater potency. For `CC[C@H](C)[C@@H]1NC(=O)[C@@H]2CSSC[C@@H]3NC(=O)[C@H](C(C)C)NC(=O)[C@H](CC(C)C)NC(=O)[C@H](CC(N)=O)NC(=O)[C@@H]4CCCN4C(=O)[C@H](CCCNC(=N)N)NC(=O)[C@H](CSSC[C@H](NC(=O)[C@@H](N)CC(=O)O)C(=O)N[C@@H](CC(C)C)C(=O)NCC(=O)N[C@@H](CCSC)C(=O)N[C@@H](CC(C)C)C(=O)N[C@@H](CCCNC(=N)N)C(=O)N[C@@H](CCCCN)C(=O)N2)NC(=O)[C@H](CSSC[C@@H](C(=O)N[C@@H](CCCCN)C(=O)N[C@@H](Cc2ccc(O)cc2)C(=O)N[C@H](C(=O)N[C@@H](Cc2ccccc2)C(N)=O)C(C)C)NC(=O)[C@H](Cc2c[nH]c4ccccc24)NC(=O)[C@H](CCCCN)NC(=O)[C@H](Cc2c[nH]cn2)NC(=O)[C@H]([C@@H](C)O)NC(=O)[C@H](CCCNC(=N)N)NC(=O)[C@H](CO)NC3=O)NC(=O)[C@H](CCCCN)NC(=O)[C@H](CC(=O)O)NC(=O)[C@H](CC(N)=O)NC(=O)[C@H](CC(=O)O)NC(=O)[C@@H]2CCCN2C1=O` [[Met5;Leu6]GpTx-1(1-34)] (H-DCLGMLRKCIPDNDKCCRPNLVCSRTHKWCKYVF-NH2; disulfide 2-17, 9-23, 16-30), the half-inhibitory concentration (IC50) against hNav1.7 is 0.27 µM; on hNav1.5, over 10 µM.

For `CC[C@H](C)[C@@H]1NC(=O)[C@@H]2CSSC[C@@H]3NC(=O)[C@H](C(C)C)NC(=O)[C@H](CC(C)C)NC(=O)[C@H](CC(N)=O)NC(=O)[C@@H]4CCCN4C(=O)[C@H](CCCNC(=N)N)NC(=O)[C@H](CSSC[C@H](NC(=O)[C@@H](N)CC(=O)O)C(=O)N[C@@H](CC(C)C)C(=O)NCC(=O)N(C)[C@@H](CC(C)C)C(=O)N[C@@H](CC(C)C)C(=O)N[C@@H](CCCNC(=N)N)C(=O)N[C@@H](CCCCN)C(=O)N2)NC(=O)[C@H](CSSC[C@@H](C(=O)N[C@@H](CCCCN)C(=O)N[C@@H](Cc2ccc(O)cc2)C(=O)N[C@H](C(=O)N[C@@H](Cc2ccccc2)C(N)=O)C(C)C)NC(=O)[C@H](Cc2c[nH]c4ccccc24)NC(=O)[C@H](CCCCN)NC(=O)[C@H](Cc2c[nH]cn2)NC(=O)[C@H]([C@@H](C)O)NC(=O)[C@H](CCCNC(=N)N)NC(=O)[C@H](CO)NC3=O)NC(=O)[C@H](CCCCN)NC(=O)[C@H](CC(=O)O)NC(=O)[C@H](CC(N)=O)NC(=O)[C@H](CC(=O)O)NC(=O)[C@@H]2CCCN2C1=O` [[NMeLeu5;Leu6]GpTx-1(1-34)], the half-maximal inhibitory concentration (IC50) against hNav1.7 was 0.012 µM; on hNav1.5, over 10 µM.

On to `CC[C@H](C)[C@@H]1NC(=O)[C@@H]2CSSC[C@@H]3NC(=O)[C@H](C(C)C)NC(=O)[C@H](CC(C)C)NC(=O)[C@H](CC(N)=O)NC(=O)[C@@H]4CCCN4C(=O)[C@H](CCCNC(=N)N)NC(=O)[C@H](CSSC[C@H](NC(=O)[C@@H](N)CC(=O)O)C(=O)N[C@@H](CC(C)C)C(=O)NCC(=O)N(C)[C@@H](Cc4ccccc4)C(=O)N[C@@H](CC(C)C)C(=O)N[C@@H](CCCNC(=N)N)C(=O)N[C@@H](CCCCN)C(=O)N2)NC(=O)[C@H](CSSC[C@@H](C(=O)N[C@@H](CCCCN)C(=O)N[C@@H](Cc2ccc(O)cc2)C(=O)N[C@H](C(=O)N[C@@H](Cc2ccccc2)C(N)=O)C(C)C)NC(=O)[C@H](Cc2c[nH]c4ccccc24)NC(=O)[C@H](CCCCN)NC(=O)[C@H](Cc2c[nH]cn2)NC(=O)[C@H]([C@@H](C)O)NC(=O)[C@H](CCCNC(=N)N)NC(=O)[C@H](CO)NC3=O)NC(=O)[C@H](CCCCN)NC(=O)[C@H](CC(=O)O)NC(=O)[C@H](CC(N)=O)NC(=O)[C@H](CC(=O)O)NC(=O)[C@@H]2CCCN2C1=O` [[NMePhe5;Leu6]GpTx-1(1-34)], for which the values for the half-inhibitory concentration (IC50) at hNav1.7 and against hNav1.5 were 0.012 µM and 11.3 µM, respectively.

With `CC[C@H](C)[C@@H]1NC(=O)[C@@H]2CSSC[C@@H]3NC(=O)[C@H](C(C)C)NC(=O)[C@H](CC(C)C)NC(=O)[C@H](CC(N)=O)NC(=O)[C@@H]4CCCN4C(=O)[C@H](CCCNC(=N)N)NC(=O)[C@H](CSSC[C@H](NC(=O)[C@@H](N)CC(=O)O)C(=O)N[C@@H](CC(C)C)C(=O)NCC(=O)N(C)[C@@H](Cc4ccccc4)C(=O)N[C@@H](CCSC)C(=O)N[C@@H](CCCNC(=N)N)C(=O)N[C@@H](CCCCN)C(=O)N2)NC(=O)[C@H](CSSC[C@@H](C(=O)N[C@@H](CCCCN)C(=O)N[C@@H](Cc2ccc(O)cc2)C(=O)N[C@H](C(=O)N[C@@H](Cc2ccccc2)C(N)=O)C(C)C)NC(=O)[C@H](Cc2c[nH]c4ccccc24)NC(=O)[C@H](CCCCN)NC(=O)[C@H](Cc2c[nH]cn2)NC(=O)[C@H]([C@@H](C)O)NC(=O)[C@H](CCCNC(=N)N)NC(=O)[C@H](CO)NC3=O)NC(=O)[C@H](CCCCN)NC(=O)[C@H](CC(=O)O)NC(=O)[C@H](CC(N)=O)NC(=O)[C@H](CC(=O)O)NC(=O)[C@@H]2CCCN2C1=O` [[NMePhe5]GpTx-1(1-34)], the half-maximal inhibitory concentration (IC50) against hNav1.7 was 0.018 µM; on hNav1.5 it was over 10 µM.

On to `CC[C@H](C)[C@@H]1NC(=O)[C@@H]2CSSC[C@@H]3NC(=O)[C@H](C(C)C)NC(=O)[C@H](CC(C)C)NC(=O)[C@H](CC(N)=O)NC(=O)[C@@H]4CCCN4C(=O)[C@H](CCCNC(=N)N)NC(=O)[C@H](CSSC[C@H](NC(=O)[C@@H](N)CC(=O)O)C(=O)N[C@@H](CC(C)C)C(=O)NCC(=O)N(C)[C@@H](C(C)C)C(=O)N[C@@H](CC(C)C)C(=O)N[C@@H](CCCNC(=N)N)C(=O)N[C@@H](CCCCN)C(=O)N2)NC(=O)[C@H](CSSC[C@@H](C(=O)N[C@@H](CCCCN)C(=O)N[C@@H](Cc2ccc(O)cc2)C(=O)N[C@H](C(=O)N[C@@H](Cc2ccccc2)C(N)=O)C(C)C)NC(=O)[C@H](Cc2c[nH]c4ccccc24)NC(=O)[C@H](CCCCN)NC(=O)[C@H](Cc2c[nH]cn2)NC(=O)[C@H]([C@@H](C)O)NC(=O)[C@H](CCCNC(=N)N)NC(=O)[C@H](CO)NC3=O)NC(=O)[C@H](CCCCN)NC(=O)[C@H](CC(=O)O)NC(=O)[C@H](CC(N)=O)NC(=O)[C@H](CC(=O)O)NC(=O)[C@@H]2CCCN2C1=O` [[NMeVal5;Leu6]GpTx-1(1-34)], for which the concentration for half-maximal inhibition (IC50) on hNav1.7 is 0.05 µM; on hNav1.5, over 10 µM.

As for `CCC[C@@H]1NC(=O)CNC(=O)[C@H](CC(C)C)NC(=O)[C@@H](NC(=O)[C@@H](N)CC(=O)O)CSSC[C@@H]2NC(=O)[C@@H]3CSSC[C@@H](C(=O)N[C@@H](CCCCN)C(=O)N[C@@H](Cc4ccc(O)cc4)C(=O)N[C@H](C(=O)N[C@@H](Cc4ccccc4)C(N)=O)C(C)C)NC(=O)[C@H](Cc4c[nH]c5ccccc45)NC(=O)[C@H](CCC(=O)O)NC(=O)[C@H](Cc4c[nH]cn4)NC(=O)[C@H]([C@@H](C)O)NC(=O)[C@H](CCCNC(=N)N)NC(=O)[C@H](CO)NC(=O)[C@H](CSSC[C@H](NC(=O)[C@H](CCCCN)NC(=O)[C@H](CCCNC(=N)N)NC(=O)[C@H](CCSC)NC1=O)C(=O)N[C@@H]([C@@H](C)CC)C(=O)N1CCC[C@H]1C(=O)N[C@@H](CC(=O)O)C(=O)N[C@@H](CC(N)=O)C(=O)N[C@@H](CC(=O)O)C(=O)N[C@@H](CCCCN)C(=O)N3)NC(=O)[C@H](C(C)C)NC(=O)[C@H](CC(C)C)NC(=O)[C@H](CC(N)=O)NC(=O)[C@@H]1CCCN1C(=O)[C@H](CCCNC(=N)N)NC2=O` [[Nva5;Glu28]GpTx-1(1-34)] (H-DCLG[Nva]MRKCIPDNDKCCRPNLVCSRTHEWCKYVF-NH2; disulfide 2-17, 9-23, 16-30), the IC50 is 0.056 µM at hNav1.7 and over 10 µM at hNav1.5.

On to `CCC[C@@H]1NC(=O)CNC(=O)[C@H](CC(C)C)NC(=O)[C@@H](NC(=O)[C@@H](N)CC(=O)O)CSSC[C@@H]2NC(=O)[C@@H]3CSSC[C@@H](C(=O)N[C@@H](CCCCN)C(=O)N[C@@H](Cc4ccc(O)cc4)C(=O)N[C@H](C(=O)N[C@@H](Cc4ccccc4)C(N)=O)C(C)C)NC(=O)[C@H](Cc4c[nH]c5ccccc45)NC(=O)[C@H](CCC(=O)O)NC(=O)[C@H](Cc4c[nH]cn4)NC(=O)[C@H]([C@@H](C)O)NC(=O)[C@H](CCCNC(=N)N)NC(=O)[C@H](CO)NC(=O)[C@H](CSSC[C@H](NC(=O)[C@H](CCCCN)NC(=O)[C@H](CCCNC(=N)N)NC(=O)[C@H](CC(C)C)NC1=O)C(=O)N[C@@H]([C@@H](C)CC)C(=O)N1CCC[C@H]1C(=O)N[C@@H](CC(=O)O)C(=O)N[C@@H](CC(N)=O)C(=O)N[C@@H](CC(=O)O)C(=O)N[C@@H](CCCCN)C(=O)N3)NC(=O)[C@H](C(C)C)NC(=O)[C@H](CC(C)C)NC(=O)[C@H](CC(N)=O)NC(=O)[C@@H]1CCCN1C(=O)[C@H](CCCNC(=N)N)NC2=O` [[Nva5;Leu6;Glu28]GpTx-1(1-34)] (H-DCLG[Nva]LRKCIPDNDKCCRPNLVCSRTHEWCKYVF-NH2; disulfide 2-17, 9-23, 16-30), for which the IC50 was 0.042 µM on hNav1.7 and over 10 µM against hNav1.5.

In the case of `CCC[C@@H]1NC(=O)CNC(=O)[C@H](CC(C)C)NC(=O)[C@@H](NC(=O)[C@@H](N)CC(=O)O)CSSC[C@@H]2NC(=O)[C@@H]3CSSC[C@@H](C(=O)N[C@@H](CCCCN)C(=O)N[C@@H](Cc4ccc(O)cc4)C(=O)N[C@H](C(=O)N[C@@H](Cc4ccccc4)C(N)=O)C(C)C)NC(=O)[C@H](Cc4c[nH]c5ccccc45)NC(=O)[C@H](CCCCN)NC(=O)[C@H](Cc4c[nH]cn4)NC(=O)[C@H]([C@@H](C)O)NC(=O)[C@H](CCCNC(=N)N)NC(=O)[C@H](CO)NC(=O)[C@H](CSSC[C@H](NC(=O)[C@H](CCCCN)NC(=O)[C@H](CCCNC(=N)N)NC(=O)[C@H](CC(C)C)NC1=O)C(=O)N[C@@H]([C@@H](C)CC)C(=O)N1CCC[C@H]1C(=O)N[C@@H](CC(=O)O)C(=O)N[C@@H](CC(N)=O)C(=O)N[C@@H](CC(=O)O)C(=O)N[C@@H](CCCCN)C(=O)N3)NC(=O)[C@H](C(C)C)NC(=O)[C@H](CC(C)C)NC(=O)[C@H](CC(N)=O)NC(=O)[C@@H]1CCCN1C(=O)[C@H](CCCNC(=N)N)NC2=O` [[Nva5;Leu6]GpTx-1(1-34)], the half-inhibitory concentration (IC50) is 0.083 µM at hNav1.7 and over 10 µM at hNav1.5.
